Consider 26 compounds from patent publication US20160159789A1, “SUBSTITUTED PYRAZOLOPYRIDINES” (BAYER PHARMA AKTIENGESELLSCHAFT, priority 2013, published 2016).

In the assay the target is T1, human full-length MKNK1 (Homo sapiens, UniProt Q9BUB5, T385D).
T1 construct: purchased Carna Biosciences 02-145; host or cells: insect cells (baculovirus expression system)
T1 sequence (Q9BUB5 1-424 isoform Q9BUB5-2 T344D): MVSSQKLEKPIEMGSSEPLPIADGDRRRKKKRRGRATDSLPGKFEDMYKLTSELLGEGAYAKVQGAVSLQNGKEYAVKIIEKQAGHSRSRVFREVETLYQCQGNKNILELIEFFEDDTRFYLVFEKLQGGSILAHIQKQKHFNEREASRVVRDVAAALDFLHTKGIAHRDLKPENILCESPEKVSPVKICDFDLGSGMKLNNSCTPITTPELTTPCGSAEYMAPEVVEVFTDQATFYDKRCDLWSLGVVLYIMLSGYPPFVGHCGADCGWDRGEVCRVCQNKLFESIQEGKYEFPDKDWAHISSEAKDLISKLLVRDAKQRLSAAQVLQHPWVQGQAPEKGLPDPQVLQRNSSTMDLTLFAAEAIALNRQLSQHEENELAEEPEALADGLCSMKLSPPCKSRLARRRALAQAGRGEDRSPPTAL
Kind of assay: MKNK1 kinase high ATP assay (TR-FRET). Particulars: high ATP (2 mM final), 15 min preincubation with enzyme, GST-MKNK1 (T344D). Format: biochemical. The method, then: MKNK1-inhibitory activity at high ATP of compounds of the present invention after their preincubation with MKNK1 was quantified employing the TR-FRET-based MKNK1 high ATP assay as described in the following paragraphs.
A recombinant fusion protein of Glutathione-S-Transferase (GST, N-terminally) and human full-length MKNK1 (amino acids 1-424 and T344D of accession number BAA 19885.1), expressed in insect cells using baculovirus expression system and purified via glutathione sepharose affinity chromatography, was purchased from Carna Biosciences (product no 02-145) and used as enzyme. As substrate for the kinase reaction the biotinylated peptide biotin-Ahx-IKKRKLTRRKSLKG (C-terminus in amide form) was used, which can be purchased e.g. from the company Biosyntan (Berlin-Buch, Germany).
For the assay 50 nL of a 100 fold concentrated solution of the test compound in DMSO was pipetted into a black low volume 384 well microtiter plate (Greiner Bio-One, Frickenhausen, Germany), 2 μL of a solution of MKNK1 in aqueous assay buffer [50 mM HEPES pH 7.5, 5 mM MgCl2, 1.0 mM dithiothreitol, 0.005% (v/v) Nonidet-P40 (Sigma)] was added and the mixture was incubated for 15 min at 22° C. to allow pre-binding of the test compounds to the enzyme before the start of the kinase reaction. Then the kinase reaction was started by the addition of 3 μL of a solution of adenosine-tri-phosphate (ATP, 3.3 mM=> final conc. in the 5 μL assay volume is 2 mM) and substrate (0.1 μM=> final conc. in the 5 μL assay volume is 0.06 μM) in assay buffer and the resulting mixture was incubated for a reaction time of 30 min at 22° C. The concentration of MKNK1 was adjusted depending of the activity of the enzyme lot and was chosen appropriate to have the assay in the linear range, typical concentrations were in the range of 0.003 μg/mL. The reaction was stopped by the addition of 5 μL of a solution of TR-FRET detection reagents (5 nM streptavidine-XL665 [Cisbio Bioassays, Codolet, France] and 1 nM anti-ribosomal protein S6 (pSer236)-antibody from Invitrogen [#44921G] and 1 nM LANCE EU-W1024 labeled ProteinG [Perkin-Elmer, product no. AD0071]) in an aqueous EDTA-solution (100 mM EDTA, 0.1% (w/v) bovine serum albumin in 50 mM HEPES pH 7.5).
The resulting mixture was incubated for 1 h at 22° C. to allow the formation of complex between the phosphorylated biotinylated peptide and the detection reagents. Subsequently the amount of phosphorylated substrate was evaluated by measurement of the resonance energy transfer from the Eu-chelate to the streptavidine-XL. Therefore, the fluorescence emissions at 620 nm and 665 nm after excitation at 350 nm were measured in a TR-FRET reader, e.g. a Rubystar (BMG Labtechnologies, Offenburg, Germany) or a Viewlux (Perkin-Elmer). The ratio of the emissions at 665 nm and at […] was taken as the measure for the amount of phosphorylated substrate. The data were normalised (enzyme reaction without inhibitor=0% inhibition, all other assay components but no enzyme=100% inhibition).
`O=C(c1cc2c(Nc3cc4cn[nH]c4cn3)ncnc2[nH]1)N1CCCC1` [Example 19, [4-(1H-Pyrazolo[3,4-c]pyridin-5-ylamino)-7H-pyrrolo[2,3-d]pyrimidin-6-yl](pyrrolidin-1-yl)methanone] displayed an IC50 of 5.8 nM.

On to `O=C(c1cc2c(Nc3cc4cn[nH]c4cn3)ncnc2[nH]1)N1CCCCC1` [Example 20, Piperidin-1-yl[4-(1H-pyrazolo[3,4-c]pyridin-5-ylamino)-7H-pyrrolo[2,3-d]pyrimidin-6-yl]methanone], for which the IC50 stood at 7.8 nM. This IC50 and that of the compound before are within 1.5-fold of each other.

`O=C(c1cc2c(Nc3cc4cn[nH]c4cn3)ncnc2[nH]1)N1CCOCC1` [Example 21, Morpholin-4-yl[4-(1H-pyrazolo[3,4-c]pyridin-5-ylamino)-7H-pyrrolo[2,3-d]pyrimidin-6-yl]methanone] showed an IC50 of 4.2 nM.

Turning to `CN(C)CCNC(=O)c1cc2c(Nc3cc4cn[nH]c4cn3)ncnc2[nH]1` [Example 22, N-[2-(Dimethylamino)ethyl]-4-(1H-pyrazolo[3,4-c]pyridin-5-ylamino)-7H-pyrrolo[2,3-d]pyrimidine-6-carboxamide], half-maximal inhibition (IC50) was put at 5.4 nM.

As for `COc1nc2[nH]ncc2cc1Nc1ncnc2sc3c(c12)CC[C@H](C(=O)N1CCOCC1)C3` [Example 34], the IC50 is 2.5 nM.

In turn, `COc1nc2[nH]ncc2cc1Nc1ncnc2sc3c(c12)CC[C@H](C(=O)N1CCC1)C3` [Example 35, Azetidin-1-yl{(7S)-4-[(6-methoxy-1H-pyrazolo[3,4-b]pyridin-5-yl)amino]-5,6,7,8-tetrahydro[1]benzothieno[2,3-d]pyrimidin-7-yl}methanone] showed an IC50 of 2.2 nM.

`COc1nc2[nH]ncc2cc1Nc1ncnc2sc3c(c12)CC[C@H](C(=O)N1C[C@@H](C)O[C@@H](C)C1)C3` [Example 36, [(2R,6S)-2,6-Dimethylmorpholin-4-yl]{(7S)-4-[(6-methoxy-1H-pyrazolo[3,4-b]pyridin-5-yl)amino]-5,6,7,8-tetrahydro[1]benzothieno[2,3-d]pyrimidin-7-yl}methanone]: the midpoint of inhibition, the IC50, lay at 0.8 nM.

In turn, `COc1nc2[nH]ncc2cc1Nc1ncnc2sc3c(c12)CC[C@H](C(=O)N(C)C(C)C)C3` [Example 37, (7S)-4-[(6-Methoxy-1H-pyrazolo[3,4-b]pyridin-5-yl)amino]-N-methyl-N-(propan-2-yl)-5,6,7,8-tetrahydro[1]benzothieno[2,3-d]pyrimidine-7-carboxamide] registered an IC50 of 4.2 nM.

`CCCN(C)C(=O)[C@H]1CCc2c(sc3ncnc(Nc4cc5cn[nH]c5nc4OC)c23)C1` [Example 38, (7S)-4-[(6-Methoxy-1H-pyrazolo[3,4-b]pyridin-5-yl)amino]-N-methyl-N-propyl-5,6,7,8-tetrahydro[1]benzothieno[2,3-d]pyrimidine-7-carboxamide] returned an IC50 of 1.4 nM.

`CCN(C)C(=O)[C@H]1CCc2c(sc3ncnc(Nc4cc5cn[nH]c5nc4OC)c23)C1` [Example 39, (7S)—N-Ethyl-4-[(6-methoxy-1H-pyrazolo[3,4-b]pyridin-5-yl)amino]-N-methyl-5,6,7,8-tetrahydro[1]benzothieno[2,3-d]pyrimidine-7-carboxamide] showed an IC50 of 1 nM.

`COc1nc2[nH]ncc2cc1Nc1ncnc2sc3c(c12)CC[C@H](C(=O)N1C[C@@H]2C[C@H]1CO2)C3` [Example 40] came in with an IC50 of 2.5 nM.

Consider `COc1nc2[nH]ncc2cc1Nc1ncnc2sc3c(c12)CC[C@H](C(=O)N1C[C@H]2C[C@@H]1CO2)C3` [Example 41], for which inhibition was half-maximal at 1.6 nM (IC50).

The compound `COc1nc2[nH]ncc2cc1Nc1ncnc2sc3c(c12)CC[C@H](C(=O)N1CCN(C)CC1)C3` [Example 42] registered an IC50 of 2.1 nM. This IC50 and that of the compound before are within 1.5-fold of each other.

Take `COc1nc2[nH]ncc2cc1Nc1ncnc2sc3c(c12)CC[C@H](C(=O)N1CCC(N(C)C)CC1)C3` [Example 43, [4-(Dimethylamino)piperidin-1-yl]{(7S)-4-[(6-methoxy-1H-pyrazolo[3,4-b]pyridin-5-yl)amino]-5,6,7,8-tetrahydro[1]benzothieno[2,3-d]pyrimidin-7-yl}methanone]: the IC50 was 1.6 nM.

Regarding `COc1nc2[nH]ncc2cc1Nc1ncnc2sc3c(c12)CC[C@H](C(=O)N1CCOC[C@H]1C)C3` [Example 44], the IC50 worked out at 0.9 nM.

`COc1nc2[nH]ncc2cc1Nc1ncnc2sc3c(c12)CC[C@H](C(=O)N1CCOC[C@@H]1C)C3` [Example 45] registered an IC50 of 0.7 nM.

In turn, `CCN(C(=O)[C@H]1CCc2c(sc3ncnc(Nc4cc5cn[nH]c5cn4)c23)C1)C(C)C` [Example 46, (7S)—N-Ethyl-N-(propan-2-yl)-4-(1H-pyrazolo[3,4-c]pyridin-5-ylamino)-5,6,7,8-tetrahydro[1]benzothieno[2,3-d]pyrimidine-7-carboxamide] yielded a half-maximal inhibitory concentration (IC50) of 4.9 nM.

For the compound `CN(CC(C)(C)O)C(=O)[C@H]1CCc2c(sc3ncnc(Nc4cc5cn[nH]c5cn4)c23)C1` [Example 47, (7S)—N-(2-Hydroxy-2-methylpropyl)-N-methyl-4-(1H-pyrazolo[3,4-c]pyridin-5-ylamino)-5,6,7,8-tetrahydro[1]benzothieno[2,3-d]pyrimidine-7-carboxamide], the IC50 came to 11.1 nM.

Compound `CN(CCC(F)(F)F)C(=O)[C@H]1CCc2c(sc3ncnc(Nc4cc5cn[nH]c5cn4)c23)C1` [Example 48, (7S)—N-Methyl-4-(1H-pyrazolo[3,4-c]pyridin-5-ylamino)-N-(3,3,3-trifluoropropyl)-5,6,7,8-tetrahydro[1]benzothieno[2,3-d]pyrimidine-7-carboxamide] had an IC50 of 6.2 nM.

The compound `CCCN(CCOC)C(=O)[C@H]1CCc2c(sc3ncnc(Nc4cc5cn[nH]c5nc4OC)c23)C1` [Example 49, (7S)—N-(2-Methoxyethyl)-4-[(6-methoxy-1H-pyrazolo[3,4-b]pyridin-5-yl)amino]-N-propyl-5,6,7,8-tetrahydro[1]benzothieno[2,3-d]pyrimidine-7-carboxamide] registered a concentration for half-maximal inhibition (IC50) of 0.3 nM. Against the preceding compound, the IC50 is about 21-fold lower.

In turn, `CCCN(CCOC)C(=O)[C@H]1CCc2c(sc3ncnc(Nc4cc5cn[nH]c5nc4O)c23)C1` [Example 50, (7S)-4-[(6-Hydroxy-1H-pyrazolo[3,4-b]pyridin-5-yl)amino]-N-(2-methoxyethyl)-N-propyl-5,6,7,8-tetrahydro[1]benzothieno[2,3-d]pyrimidine-7-carboxamide] registered an IC50 of 2.6 nM.

For the compound `CCCCN(C)C(=O)[C@H]1CCc2c(sc3ncnc(Nc4cc5cn[nH]c5nc4OC)c23)C1` [Example 51, (7S)—N—Butyl-4-[(6-methoxy-1H-pyrazolo[3,4-b]pyridin-5-yl)amino]-N-methyl-5,6,7,8-tetrahydro[1]benzothieno[2,3-d]pyrimidine-7-carboxamide], half-maximal inhibition (IC50) required 0.5 nM.

`CCCCN(C)C(=O)[C@H]1CCc2c(sc3ncnc(Nc4cc5cn[nH]c5nc4O)c23)C1` [Example 52, (7S)—N-Butyl-4-[(6-hydroxy-1H-pyrazolo[3,4-b]pyridin-5-yl)amino]-N-methyl-5,6,7,8-tetrahydro[1]benzothieno[2,3-d]pyrimidine-7-carboxamide] gave an IC50 of 6 nM.

Compound `COc1nc2[nH]ncc2cc1Nc1ncnc2sc3c(c12)CC[C@H](C(=O)N(C)C)C3` [Example 53, (7S)-4-[(6-Methoxy-1H-pyrazolo[3,4-b]pyridin-5-yl)amino]-N,N-dimethyl-5,6,7,8-tetrahydro[1]benzothieno[2,3-d]pyrimidine-7-carboxamide] displayed a 50% inhibitory concentration (IC50) of 0.5 nM.

Turning to `CN(C)C(=O)[C@H]1CCc2c(sc3ncnc(Nc4cc5cn[nH]c5nc4O)c23)C1` [Example 54, (7S)-4-[(6-Hydroxy-1H-pyrazolo[3,4-b]pyridin-5-yl)amino]-N,N-dimethyl-5,6,7,8-tetrahydro[1]benzothieno[2,3-d]pyrimidine-7-carboxamide], the half-maximal inhibitory concentration (IC50) amounted to 6.9 nM.

Turning to `O=C([C@H]1CCc2c(sc3ncnc(Nc4cc5cn[nH]c5cn4)c23)C1)N1CCC1` [Example 55, Azetidin-1-yl[(7S)-4-(1H-pyrazolo[3,4-c]pyridin-5-ylamino)-5,6,7,8-tetrahydro[1]benzothieno[2,3-d]pyrimidin-7-yl]methanone], it took 9.7 nM to reach half-maximal inhibition (IC50).
